Measured values published in patent US20130090364A1, “ANALOGUES FOR THE TREATMENT OR PREVENTION OF FLAVIVIRUS INFECTIONS” (priority 2010, published 2013).

Test system: HCV (1b) RNA replication (replicon I389Luc-ubi-neo/NS3-3′/5.1)
Test: Cell-based luciferase reporter HCV (1b) RNA replication assay, Huh-ET cells
Conditions: Hepatitis C virus, HCV genotype 1b replicon
Source text: Cell-Based Luciferase Reporter HCV (Ib) RNA Replication Assay Cell Culture
Replicon cell lines Huh-5.2 are derived from the Huh-7 hepatocarcinoma cell line are maintained in culture as generally described in Krieger, N; Lohmann, V; Bartenschlager, R. Enhancement of hepatitis C virus RNA replication by cell culture-adaptive mutations. J. Virol. 2001, 75, 4614-4624. The Huh-5.2 cells contain the highly cell culture-adapted replicon I389Luc-ubi-neo/NS3-3′/5.1 construct that carries, in addition to the neomycin gene, an integrated copy to the firefly luciferase gene (Krieger, N; Lohmann, V; Bartenschlager, R. Enhancement of hepatitis C virus RNA replication by cell culture-adaptive mutations. J. Virol. 2001, 75, 4614-4624). This cell line allows measurement of HCV RNA replication and translation by measuring luciferase activity. It has been previously shown that the luciferase activity tightly follows the replicon RNA level in these cells (Krieger, N; Lohmann, V; Bartenschlager, R. Enhancement of hepatitis C virus RNA replication by cell culture-adaptive mutations. J. Virol. 2001, 75, 4614-4624). The Huh-ET cell line has the same features as those mentioned for Huh-5.2 cell line, except that ET cells are more robust and contain an adaptative mutation in the HCV NS4B gene instead of NSSA. Both cell lines are maintained in cultures at a sub-confluent level (<85%) as the level of replicon RNA is highest in actively proliferating cells. The culture media used for cell passaging consist of DMEM (Gibco BRL Laboratories, Mississauga, ON, Canada) supplemented with 10% foetal bovine serum with 1% penicilin/streptomycin, 1% glutamine, 1% sodium pyruvate, 1% non-essential amino acids, and 180 μg/ml of G418 final concentration. Cells are incubated at 37° C., in an atmosphere of 5% CO2 and passaged twice a week to maintain sub-confluence.
Approximately 3000 viable Huh-ET cells (100 μl) are plated per well in a white opaque 96-well microtiter plate. The cell culture media used for the assay is the same as described above except that it contains no G418 and no phenol red. After an incubation period of 3-4 hours at 37° C. in a 5% CO2 incubator, compounds (100 μl) are added at various concentrations. Cells are then further incubated for 4 days at 37° C. in a 5% CO2 incubator. Thereafter, the culture media is removed and cells are lysed by the addition of 95 μL of the luciferase buffer (luciferin substrate in buffered detergent). Cell lysates are incubated at room temperature and protected from direct light for at least 10 minutes. Plates are read for luciferase counts using a luminometer (Wallac MicroBeta Trilux, Perkin Elmer™, MA, USA).
Curves are fitted to data points using nonlinear regression analysis, and IC50s are interpolated from the resulting curve using GraphPad Prism software, version 2.0 (GraphPad Software Inc., San Diego, Calif., USA).

| SMILES | EC50 (Table 2A) [nM] | EC50 (Table 2B) [nM] |
| --- | --- | --- |
| COC(=O)N[C@H](C(=O)N1C[C@@H](C)C[C@H]1c1nc2cc(C#Cc3cc4[nH]c([C@@H]5C[C@H](C)CN5C(=O)[C@@H](NC(=O)OC)C(C)C)nc4s3)ccc2[nH]1)C(C)C [Compound 3] | ≤ 5 | – |
| COC(=O)N[C@H](C(=O)N1C[C@@H](C)C[C@H]1c1nc(-c2ccc(-c3ccc(-c4cc5[nH]c([C@@H]6C[C@H](C)CN6C(=O)[C@@H](NC(=O)OC)C(C)C)nc5s4)c(F)c3)cc2)c[nH]1)C(C)C [Compound 7a] | – | ≤ 5 |
| COC(=O)N[C@H](C(=O)N1C[C@@H](C)C[C@H]1c1nc2sc(-c3ccc(-c4ccc5[nH]c([C@@H]6CC[C@H](C)N6C(=O)[C@@H](NC(=O)OC)C(C)C)nc5c4)cc3)cc2[nH]1)C(C)C [Compound 7] | ≤ 5 | – |
| COC(=O)N[C@H](C(=O)N1C[C@@H](C)C[C@H]1c1nc(-c2ccc(-c3ccc(-c4cc5[nH]c([C@@H]6C[C@H](C)CN6C(=O)[C@@H](NC(=O)OC)C(C)C)nc5s4)cc3F)cc2)c[nH]1)C(C)C [Compound 6a] | – | ≤ 5 |
| COC(=O)N[C@H](C(=O)N1C[C@@H](C)C[C@H]1c1nc2sc(-c3ccc(-c4ccc5nc([C@@H]6C[C@H](C)CN6C(=O)[C@@H](NC(=O)OC)C(C)C)n(C)c5c4)cc3)cc2[nH]1)C(C)C [Compound 9] | ≤ 5 | – |
| COC(=O)N[C@H](C(=O)N1C[C@@H](C)C[C@H]1c1ncc(-c2ccc(-c3ccc(-c4cc5[nH]c([C@@H]6C[C@H](C)CN6C(=O)[C@@H](NC(=O)OC)C(C)C)nc5s4)cc3)s2)[nH]1)C(C)C [Compound 25] | ≤ 5 | – |
| COC(=O)N[C@H](C(=O)N1C[C@@H](C)C[C@H]1c1nc(-c2csc3ccc(-c4ccc(-c5cc6nc([C@@H]7C[C@H](C)CN7C(=O)[C@@H](NC(=O)OC)C(C)C)[nH]c6s5)cc4)cc23)c[nH]1)C(C)C [Compound 23] | 5 to 5000 | – |
| COC(=O)N[C@H](C(=O)N1C[C@@H](C)C[C@H]1c1nc(-c2cc3sccc3s2)c(-c2ccc(-c3cc4nc([C@@H]5C[C@H](C)CN5C(=O)[C@@H](NC(=O)OC)C(C)C)[nH]c4s3)cc2)[nH]1)C(C)C [Compound 16] | ≤ 5 | – |
| COC(=O)N[C@H](C(=O)N1C[C@@H](C)C[C@H]1c1nc(I)c(-c2ccc(-c3ccc(-c4cc5nc([C@@H]6C[C@H](C)CN6C(=O)[C@@H](NC(=O)OC)C(C)C)[nH]c5s4)cc3)cc2)[nH]1)C(C)C [Compound 3a] | – | ≤ 5 |
| COC(=O)N[C@H](C(=O)N1C[C@@H](C)C[C@H]1c1ncc(-c2ccc(-c3ccc(-c4cc5[nH]c([C@@H]6C[C@H](C)CN6C(=O)[C@@H](NC(=O)OC)C(C)C)nc5s4)cc3)cc2)[nH]1)C(C)C [Compound 11] | ≤ 5 | – |
| COC(=O)N[C@H](C(=O)N1C[C@@H](C)C[C@H]1c1nc2sc(-c3ccc(-c4ccc(-c5cc6[nH]c([C@@H]7C[C@H](C)CN7C(=O)[C@@H](NC(=O)OC)C(C)C)nc6s5)s4)cc3)cc2[nH]1)C(C)C [Compound 30] | ≤ 5 | – |
| COC(=O)N[C@H](C(=O)N1C[C@@H](C)C[C@H]1c1ncc(C#Cc2ccc(-c3ccc(-c4cc5[nH]c([C@@H]6C[C@H](C)CN6C(=O)[C@@H](NC(=O)OC)C(C)C)nc5s4)cc3)cc2)[nH]1)C(C)C [Compound 15] | ≤ 5 | – |
| COC(=O)N[C@H](C(=O)N1C[C@@H](C)C[C@H]1c1nc2sc(-c3ccc(-c4ccc5nc([C@@H]6CC[C@H](C)N6C(=O)[C@@H](NC(=O)OC)C(C)C)oc5c4)cc3)cc2[nH]1)C(C)C [Compound 8] | ≤ 5 | – |
| COC(=O)N[C@H](C(=O)N1C[C@@H](C)C[C@H]1c1ncc(-c2ccc(-c3ccc(-c4cc5[nH]c([C@@H]6C[C@H](C)CN6C(=O)[C@@H](NC(=O)OC)C(C)C)nc5s4)s3)cc2)[nH]1)C(C)C [Compound 22] | ≤ 5 | – |
| COC(=O)N[C@H](C(=O)N1C[C@@H](C)C[C@H]1c1ncc(-c2ccc(-c3ccc(-c4cc5[nH]c([C@@H]6C[C@H](C)CN6C(=O)[C@@H](NC(=O)OC)C(C)C)nc5s4)cc3)cc2F)[nH]1)C(C)C [Compound 10a] | – | ≤ 5 |
| COC(=O)N[C@H](C(=O)N1C[C@@H](C)C[C@H]1c1nc2cc(C#Cc3ccc(-c4cc5[nH]c([C@@H]6C[C@H](C)CN6C(=O)[C@@H](NC(=O)OC)C(C)C)nc5s4)cc3)ccc2[nH]1)C(C)C [Compound 14] | ≤ 5 | – |
